In US5508424A, “4-arylisoindole analgesics” (Ortho Pharmaceutical Corporation, priority 1993, dated 1996):

system: Acetylcholine-Bromide Induced Abdominal Constriction; experiment: Mouse Acetylcholine Bromide-Induced Abdominal Constriction Assay; type: in vivo; conditions: Mus musculus, 0.5 h; @ 3 mpk/po; acetylcholine bromide 5.5 mg/kg i.p. 30 min after drug; % analgesia
Procedure: Mouse Acetylcholine Bromide-Induced Abdominal Constriction Assay
The mouse acetylcholine-induced abdominal constiction assay, as described by Collier et al. in Brit. J. Pharmacol. Chem. Ther., 32: 295-310, 1968, with minor modifications was used to assess analgesic potency of the compounds of formula (I). The test drugs or appropriate vehicle were administered orally (p.o.) and 30 minutes later the animal received an intraperitoneal (i.p.) injection of 5.5 mg/kg acetylcholine bromide (Matheson, Coleman and Bell, East Rutherford, N.J.). The mice were then placed in groups of three into glass bell jars and observed for a ten minute observation period for the occurrence of an abdominal constriction response (defined as a wave of constriction and elongation passing caudally along the abdominal wall, accompanied by a twisting of the trunk and followed by extension of the hind limbs). The percent inhibition of this response to a nociceptive stimulus (equated to % analgesia) was calculated as follows: The % Inhibition of response, i.e., % analgesia is equal to the difference between the No. of control animals response and the No. of drug-treated animals response times 100 divided by the No. of control animals responding.
At least 15 animals were used for control and in each of the drug treated groups. At least three doses were used to determine each dose response curve and ED50 (that dose which would produce 50% analgesia). The ED50 values and their 95% fiducial limits were determined by a computer assisted probit analysis.

CN1C[C@H]2CCC[C@H](c3ccc(C(F)(F)F)cc3)[C@@H]2C1 (relative stereo) [Cp-17] showed an inhibition in vivo at 3 mg/kg of 33%.

same assay, conditions: Mus musculus, 0.5 h; @ 30 mpk/po; acetylcholine bromide 5.5 mg/kg i.p. 30 min after drug; % analgesia

Point of comparison: FC(F)(F)c1ccc([C@H]2CCC[C@@H]3CN(CCC(c4ccccc4)c4ccccc4)C[C@H]32)cc1 (relative stereo) [Cp-22], inhibition in vivo at 30 mg/kg 13.3%. Against it:
- COc1cccc([C@@H]2CCC[C@H]3CN(C)C[C@H]32)c1 (relative stereo) [Cp-1] — higher, 30 to 40%
- COc1cccc([C@@H]2CCC[C@H]3CN(C)C[C@H]32)c1OC (relative stereo) [Cp-8] — higher, 78.8%
- COc1cccc([C@@H]2CCC[C@@H]3CN(Cc4ccccc4)C[C@H]32)c1 (relative stereo) [Cp-6] — the same, 13.3%
- CCCCN1CC2CCCC(c3cccc(C(F)(F)F)c3)C2C1 (stereo not shown) [Cp-18] — higher, 66.7%
- CN1C[C@@H]2CCC[C@H](c3ccc(Cl)c(Cl)c3)[C@@H]2C1 (relative stereo) [Cp-46] — higher, 100%
- CN1C[C@@H]2CCC[C@@H](c3ccc(Br)cc3)[C@@H]2C1 (relative stereo) [Cp-34] — higher, 100%

same assay, conditions: Mus musculus; po; dose producing 50% analgesia, probit analysis; read-out: ED50

Point of comparison: CN1C[C@H]2CCC[C@H](c3ccc(Cl)c(Cl)c3)[C@@H]2C1 (relative stereo) [Cp-14], ED50 2.8 mg/kg. Against it:
- CN1C[C@@H]2CCC[C@H](c3ccc(Br)cc3)[C@@H]2C1 (relative stereo) [Cp-44, 4β-bromophenyl-2-methyl-3aα,7aα-octahydro-1H-isoindole] — 3.3-fold higher, 9.15 mg/kg
- CN1C[C@H]2CCC[C@@H](c3ccc(Cl)c(Cl)c3)[C@@H]2C1 (relative stereo) [Cp-15] — 2.5-fold higher, 7 mg/kg
- CN1C[C@H]2CCC[C@@H](c3ccccc3)[C@@H]2C1 (relative stereo) [Cp-13] — 3-fold higher, 8.35 mg/kg
- Clc1ccc([C@H]2CCC[C@H]3CNC[C@H]32)cc1Cl (relative stereo) [Cp-35, 4β-(3,4-dichlorophenyl)-3aα,7aα-octahydro-1H-isoindole] — 3.4-fold higher, 9.63 mg/kg
- CN1C[C@@H]2CCC[C@H](c3ccccc3)[C@@H]2C1 (relative stereo) [Cp-43] — 1.8-fold higher, 4.9 mg/kg
- Cc1cccc([C@@H]2CCC[C@@H]3CN(C)C[C@H]32)c1 (relative stereo) [Cp-24, 3aα,7aβ Octahydro-2-methyl-4α-(3-methylphenyl)-1H-isoindole Monofumarate] — 8.4-fold higher, 23.6 mg/kg
- CN1C[C@H]2CCC[C@@H](c3cccc(C(F)(F)F)c3)[C@@H]2C1 (relative stereo) [Cp-7, 3aα, 4α,7aβ-Octahydro-2-methyl-4-(3-trifluoromethylphenyl)-1H-isoindole Monofumarate] — 2.7-fold higher, 7.46 mg/kg
- CN1C[C@H]2CCC[C@@H](c3ccc(C(F)(F)F)cc3)[C@@H]2C1 (relative stereo) [Cp-16] — 1.6-fold higher, 4.6 mg/kg

same assay, conditions: po; dose producing 50% analgesia, probit analysis

Point of comparison: Cc1cccc(C2CCCC3CN(C)CC32)c1.O=C(O)/C=C/C(=O)O (single isomer, unassigned; (-)) [Cp-24-, (-)3aα,7aβ Octahydro-2-methyl-4α-(3-methylphenyl)-1H-isoindole Monofumarate], ED50 24.9 mpk. Against it:
- Cc1cccc([C@@H]2CCC[C@@H]3CN(C)C[C@@H]32)c1.O=C(O)/C=C/C(=O)O [Cp-24+, (+)3aα,4α,7aβ Octahydro-2-methyl-4-(3-methylphenyl)-1H-isoindole Monofumarate] — lower, 21.6 mpk
